Where two headings read alike, the source gives them in different places. Each block holds one compound with its values, some of them ahead of it.
What was measured:
[1] = system: pancreatic amylase secretion; conditions: Crawley and Corwin; cited from earlier work
[2] = Pharmacokinetic study: plasma CCK-8 levels after one oral enteric-coated capsule (Example 3); assay type: in vivo, human
Procedure: Secondarily, it was desired to ascertain the time it would take to reach peak plasma levels. Each individual ingested the capsule in the fasting state (not having eaten for at least 8 hours). Blood was then drawn every 10 minutes for one hour. […] Plasma was drawn off from each tube and frozen. The frozen plasma was sent to Mt. Sinai Hospital in Canada for measurement of CCK-8 levels.

[3] = in vivo; cited from earlier work
[4] = cited from earlier work
CCKA receptors = target: T1, CCKA receptors (Homo sapiens, UniProt P32238); conditions: de Montigny 1989; cited from earlier work
T1 sequence (P32238 1-428): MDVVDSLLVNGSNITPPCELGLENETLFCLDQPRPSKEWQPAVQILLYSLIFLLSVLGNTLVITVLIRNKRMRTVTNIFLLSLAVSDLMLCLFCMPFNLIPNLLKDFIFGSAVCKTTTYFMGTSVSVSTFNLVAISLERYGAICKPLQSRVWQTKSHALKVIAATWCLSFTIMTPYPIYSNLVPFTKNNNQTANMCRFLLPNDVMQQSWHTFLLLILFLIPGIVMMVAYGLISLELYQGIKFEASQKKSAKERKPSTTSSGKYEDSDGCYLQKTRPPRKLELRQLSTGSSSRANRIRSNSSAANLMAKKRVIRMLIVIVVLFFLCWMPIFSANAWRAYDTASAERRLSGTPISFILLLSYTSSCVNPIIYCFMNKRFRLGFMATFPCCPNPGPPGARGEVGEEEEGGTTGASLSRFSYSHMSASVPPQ

CCK-8 level (plasma) ([2]; Individual #1, 10 minutes post-ingestion, one enteric-coated capsule with 9.2 micrograms CCK-8 and an enzyme inhibitor, fasting): 3.268 picomoles/liter (pm/L)
CCK-8 level (plasma) ([2]; Individual #1, remaining 5 measurements (every 10 minutes up to one hour), 9.2 micrograms capsule with enzyme inhibitor): detected no CCK-8
CCK-8 level (plasma) ([2]; Individual #2, 10 minutes post-ingestion, 9.2 micrograms capsule with enzyme inhibitor, fasting): 0.7625 pm/L
CCK-8 level (plasma) ([2]; Individual #2, 20 minutes, 9.2 micrograms capsule with enzyme inhibitor, fasting): 3.326 pm/L
CCK-8 level (plasma) ([2]; Individual #2, next 4 measurements (30-60 minutes)): detected no CCK-8
CCK-8 level (plasma) ([2]; Individual #3 (BMI 24), 10 minutes post-ingestion, 9.2 micrograms capsule with enzyme inhibitor, fasting): 0.0 pm/L
CCK-8 level (plasma) ([2]; Individual #3 (BMI 24), 20 minutes, 9.2 micrograms capsule with enzyme inhibitor, fasting): 4.375 pm/L
CCK-8 level (plasma) ([2]; Individual #3, next 4 measurements (30-60 minutes)): detected no CCK-8
Compound: Asp-Tyr(SO3H)-Met-Gly-Trp-Met-Asp-Phe-NH2 [CCK-8]
more potent than unsulfated CCK-8 or CCK-4 in stimulating pancreatic amylase secretion [1]: approximately 1000 fold
oral bio-availability [3]: less than 1%

Compound: O[C@H](CS)[C@H](O)CS (racemic) [dithiothreitol]
increase in absorption and biliary recovery of a tripeptide over control rats ([4]; ileum): four-fold
increase in absorption and biliary recovery of a tripeptide over control rats ([4]; proximal colon): 70 fold

Compound: CCK-4: the tetrapeptide, CCK-4 (CCK30-33)
lower affinity for CCKA receptors than the sulfated form of CCK-8 (CCKA receptors): 10,000 fold

— patent publication US20080069869A1, “Formulations and methods for modulating satiety” (priority 2004, published 2008)
